Test results published in ChEMBL document CHEMBL4689842, “EUbOPEN Chemogenomics Library wave 1” (2021).

How the values were obtained:
Type in all cases: toxicity, cell-based
HEK-293T = test: Incucyte cell viability with HEK293T; settings: human, 10 µM, compound concentration 10 uM
Fibroblast = test: Incucyte cell viability with human fibroblast; settings: 10 µM, compound concentration 10 uM
U2OS = test: Incucyte cell viability with U2OS; settings: human, 10 µM, compound concentration 10 uM
[1] = 0 h, replicate number 2, timepoint 0 hours
[2] = 6 h, replicate number 1, timepoint 6 hours
[3] = 12 h, replicate number 1, timepoint 12 hours
[4] = 18 h, replicate number 1, timepoint 18 hours
[5] = 24 h, replicate number 1, timepoint 24 hours
[6] = 0 h, replicate number 1, timepoint 0 hours
[7] = 18 h, replicate number 2, timepoint 18 hours
[8] = 24 h, replicate number 2, timepoint 24 hours
[9] = 12 h, replicate number 2, timepoint 12 hours
[10] = 6 h, replicate number 2, timepoint 6 hours
Note: filed as whole numbers so only -1 and 0 and 1 occur.

| SMILES | Growth Rate (HEK-293T; [2]) | Growth Rate (HEK-293T; [3]) | Growth Rate (HEK-293T; [4]) | Growth Rate (HEK-293T; [5]) | Growth Rate (Fibroblast; [6]) | Growth Rate (Fibroblast; [2]) | Growth Rate (Fibroblast; [3]) | Growth Rate (Fibroblast; [4]) | Growth Rate (Fibroblast; [7]) | Growth Rate (Fibroblast; [5]) | Growth Rate (Fibroblast; [8]) | Growth Rate (U2OS; [1]) | Growth Rate (U2OS; [2]) | Growth Rate (U2OS; [3]) | Growth Rate (U2OS; [4]) | Growth Rate (U2OS; [5]) | Growth Rate (U2OS; [8]) | Growth Rate (HEK-293T; [6]) | Growth Rate (HEK-293T; [8]) | Growth Rate (U2OS; [9]) | other results |
| --- | --- | --- | --- | --- | --- | --- | --- | --- | --- | --- | --- | --- | --- | --- | --- | --- | --- | --- | --- | --- | --- |
| CN(C)S(=O)(=O)c1ccc(NC(=S)N2CCC(C(O)(c3ccccc3)c3ccccc3)CC2)cc1 | 0 | 0 | 0 | 0 | 0 | 0 | 0 | 0 | 1 | 0 | 1 | 0 | 1 | 0 | 1 | 0 | 1 |  |  |  | Growth Rate (HEK-293T; [1]): 0 |
| N#CC(Cc1ccc(O)cc1)c1ccc(O)cc1 (stereo unspecified) [DIARYLPROPIONITRILE] | 1 | 0 | 0 | 0 | 0 | 0 | 0 | 0 |  | 0 |  |  |  | 1 | 0 | 1 | 0 | 1 | 1 | 0 | Growth Rate (HEK-293T; [1]): 0; Growth Rate (HEK-293T; [9]): 1; Growth Rate (HEK-293T; [7]): 1; Growth Rate (U2OS; [10]): 0 |
| NC(=O)c1ccc(NC(=O)NCc2cccc(C(=O)Nc3ccc4c(c3)CNCC4)c2)cc1 |  |  | 1 | 0 | 0 | 0 | 0 | 1 |  | 1 |  |  | 0 | 1 | 1 | 1 |  | 0 | 1 |  | Growth Rate (Fibroblast; [10]): 1; Growth Rate (U2OS; [6]): 0 |
| Cc1nc(C(=O)N2CCC[C@H]2Cc2nnc(-c3ccccc3)o2)c(-c2ccccc2F)s1 | 0 | 0 | 0 | 0 | 1 | 0 | 0 | 1 |  | 0 | 1 |  | 0 | 0 | 1 | 0 | 1 |  |  |  | Growth Rate (HEK-293T; [1]): 0 |
| O=C(NCc1ccccc1)c1ccc(S(=O)(=O)NCc2ccccc2)cc1 | 0 | 1 | 1 | 0 | 0 | 0 | 0 | 1 | 0 | 0 |  | 1 | 0 | 1 | 0 | 1 | 0 | 0 | 1 |  | Growth Rate (HEK-293T; [10]): 1; Growth Rate (Fibroblast; [10]): 1; Growth Rate (Fibroblast; [9]): 1 |
| COc1ccc(C2(O)OC(=O)C(c3ccc4c(c3)OCO4)=C2Cc2cc(OC)c(OC)c(OC)c2)cc1 (stereo unspecified) [PD-156707] | 1 | 1 | 0 | 0 | 1 | 0 | 0 | 0 | 1 | 0 | 1 | 1 | 1 | 0 | 0 | 0 | 1 | 0 |  | 1 | Growth Rate (HEK-293T; [10]): 0; Growth Rate (HEK-293T; [9]): 0; Growth Rate (Fibroblast; [1]): 0; Growth Rate (U2OS; [7]): 1 |
| C[S+]([O-])c1ccc(-c2nc(-c3ccncc3)c(-c3ccc(F)cc3)[nH]2)cc1 (stereo unspecified) [SB-203580] | 0 | 0 | 0 | 0 | 0 |  |  |  | 1 |  | 1 |  |  |  | 1 | 1 |  | 0 |  | 1 | Growth Rate (Fibroblast; [10]): 0; Growth Rate (Fibroblast; [9]): 1; Growth Rate (U2OS; [10]): 0 |
| CC(C)S(=O)(=O)c1ccc2nccc(Nc3ccc4scnc4c3)c2c1 | 0 | 0 | 0 | 0 |  | 0 | 0 | 0 |  | 0 |  | 0 | 0 | 1 | 0 | 1 |  |  |  |  | Growth Rate (Fibroblast; [1]): 0; Growth Rate (U2OS; [6]): 1; Growth Rate (U2OS; [7]): 1 |
| CC(=O)OCC(=O)[C@@]1(O)CC[C@H]2[C@@H]3CCC4=CC(=O)CC[C@]4(C)[C@@]3(F)[C@@H](O)C[C@@]21C [FLUDROCORTISONE ACETATE] | 1 | 1 | 1 | 1 | 0 | 0 | 1 | 1 |  | 1 |  | 1 |  |  | 1 | 1 |  | 0 | 0 | 1 | Growth Rate (HEK-293T; [10]): 0; Growth Rate (U2OS; [6]): 0; Growth Rate (U2OS; [10]): 0 |
